We go through 30 compounds from ChEMBL document CHEMBL1125530, “1,4-Dihydropyridines as antagonists of platelet activating factor. 1. Synthesis and structure-activity relationships of 2-(4-heterocyclyl)phenyl derivatives” (J Med Chem, 1992).

Molecules are shown by their SMILES.

For the test, the target named is Platelet-activating factor receptor (Mus musculus) (UniProt Q62035). Description: Ability to protect mice from lethal effects of an injection of PAF in vivo. To be noted: Mus sp. In kind it is functional, organism-based.
Sequence of Platelet-activating factor receptor (Mus musculus) (Q62035 whole entry): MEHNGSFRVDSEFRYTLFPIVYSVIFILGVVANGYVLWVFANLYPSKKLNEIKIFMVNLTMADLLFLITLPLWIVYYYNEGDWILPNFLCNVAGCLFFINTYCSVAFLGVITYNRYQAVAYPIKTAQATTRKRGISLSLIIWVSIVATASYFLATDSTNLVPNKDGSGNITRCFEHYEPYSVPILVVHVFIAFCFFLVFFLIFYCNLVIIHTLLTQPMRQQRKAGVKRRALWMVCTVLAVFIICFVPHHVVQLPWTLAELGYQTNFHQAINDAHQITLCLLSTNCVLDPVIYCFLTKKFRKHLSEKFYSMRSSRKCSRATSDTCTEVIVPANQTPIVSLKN
`CCOC(=O)C1=C(c2ccc(-n3c(C)nc4cnccc43)cc2)N=C(C)/C(=C(/O)OC(C)(C)C)C1c1ccccc1Cl` (stereo not given) showed an ED50 of 2 mg/kg. In turn, `CCOC(=O)C1=C(c2ccc(-n3c(C)nc4cnccc43)cc2)NC(C)=C(C(N)=O)C1c1ccccc1Cl` (stereo not given) showed an ED50 of 1 mg/kg. The same measure for `CCOC(=O)C1=C(c2ccc(-c3c(C)nc4ccccn34)cc2)NC(C)=C(C(=O)Nc2ccccn2)C1c1ccccc1Cl` (stereo not given): 92 mg/kg; for `CCOC(=O)C1=C(c2ccc(-c3cccnc3C)cc2)NC(C)=C(C(=O)Nc2ccccn2)C1c1ccccc1Cl` (stereo not given): 3.7 mg/kg; for `CCOC(=O)C1=C(c2ccc(-n3c(C)nnc3C)cc2)NC(C)=C(C(=O)Nc2ccccn2)C1c1ccccc1Cl` (stereo not given): 34 mg/kg.

As to `CCOC(=O)C1=C(c2ccc(-n3c(C)nc4cnccc43)cc2)NC(C)=C(C(=O)Nc2ccccn2)C1c1csc2ccccc12` (stereo not given), the ED50 is 0.6 mg/kg. For `CCOC(=O)C1=C(c2ccc(-n3c(C)nc4cnccc43)cc2)NC(C)=C(C(=O)Nc2ccccn2)C1c1ccccc1OC(F)(F)F` (stereo not given), the ED50 worked out at 0.2 mg/kg. `Cc1nnc2n1-c1sc(CCC(=O)N3CCOCC3)cc1C(c1ccccc1Cl)=NC2` showed an ED50 of 2.03 mg/kg. Compared with the last compound, the ED50 is about 10-fold higher.

For the compound `CCOC(=O)C1=C(c2ccc(-n3c(C)nc4cnccc43)cc2)NC(C)=C(C(=O)Nc2ccccn2)C1c1ccc(C#N)cc1` (stereo not given), the ED50 was determined as 1.2 mg/kg. On to `CCOC(=O)C1=C(c2ccc(-n3c(C)nc4cnccc43)cc2)N=C(C)/C(=C(/O)OC)C1c1ccccc1Cl` (stereo not given), for which the ED50 stood at 1.5 mg/kg. The same measure for `CCOC(=O)C1=C(c2ccc(-n3c(C)nc4cccnc43)cc2)NC(C)=C(C(=O)Nc2ccccn2)C1c1ccccc1Cl` (stereo not given): 23 mg/kg; for `CCOC(=O)C1=C(c2ccc(-n3c(C)nc4cnccc43)cc2)NC(C)=C(C(=O)NC(C)(C)C)C1c1ccccc1Cl` (stereo not given): 2.1 mg/kg; for `CCOC(=O)C1=C(c2ccc(-n3c(CC)nc4cnccc43)cc2)NC(C)=C(C(=O)Nc2ccccn2)C1c1ccccc1Cl` (stereo not given): 10.5 mg/kg.

The compound `CCOC(=O)C1=C(c2ccc(-n3c(C)nc4c(C)nc(C)cc43)cc2)NC(C)=C(C(=O)Nc2ccccn2)C1c1ccccc1Cl` (stereo not given) showed an ED50 of 0.3 mg/kg. Compound `CCOC(=O)C1=C(c2ccc(-n3c(C)nc4cnccc43)cc2)N=C(C)/C(=C(/O)OC2CCCCC2)C1c1ccccc1Cl` (stereo not given) had an ED50 of 4.7 mg/kg. This ED50 is about 16-fold higher than that of the compound before. Consider `CCOC(=O)C1=C(c2ccc(-n3c(C)nc(C)c3C)cc2)NC(C)=C(C(=O)Nc2ccccn2)C1c1ccccc1Cl` (stereo not given), for which the ED50 worked out at 10.5 mg/kg. Compared with the last compound, the ED50 is about 2.2-fold higher. `CCOC(=O)C1=C(c2ccc(-n3cc(C)nc3C)cc2)NC(C)=C(C(=O)Nc2ccccn2)C1c1ccccc1Cl` (stereo not given) came in with an ED50 of 3 mg/kg. This ED50 is about 3.5-fold lower than that of the compound before. In turn, `CCOC(=O)C1=C(c2ccc(-c3sc(C)nc3C)cc2)NC(C)=C(C(=O)Nc2ccccn2)C1c1ccccc1Cl` (stereo not given) came in with an ED50 of 7.4 mg/kg. In turn, `CCOC(=O)C1=C(c2ccc(-n3c(C)nc4ccncc43)cc2)NC(C)=C(C(=O)Nc2ccccn2)C1c1ccccc1Cl` (stereo not given) returned an ED50 of 16 mg/kg. In turn, `CCOC(=O)C1=C(c2ccc(-n3c(C)nc4cnccc43)cc2)NC(C)=C(C(=O)Nc2ccccn2)C1c1cccnc1` (stereo not given) returned an ED50 of 16 mg/kg.

Compound `CCOC(=O)C1=C(c2ccc(-n3c(C)nc4cnccc43)cc2)NC(C)=C(C(=O)Nc2ccccn2)C1c1ccccn1` (stereo not given) returned an ED50 of 4.1 mg/kg.

As to `CCOC(=O)C1=C(c2ccc(-n3c(C)nc4cnccc43)cc2)NC(C)=C(C(=O)O)C1c1ccccc1Cl` (stereo not given), the 50% effect level (ED50) was put at a dose of 4.7 mg/kg. Compound `CCOC(=O)C1=C(c2ccc(-n3c(C)nc4cnccc43)cc2)NC(C)=C(C(=O)Nc2ccccn2)C1c1cccc2c1OCO2` (stereo not given) came in with a median effective dose (ED50) of 0.5 mg/kg. `CCOC(=O)C1=C(c2ccc(-n3c(C(F)(F)F)nc4cnccc43)cc2)NC(C)=C(C(=O)Nc2ccccn2)C1c1ccccc1Cl` (stereo not given): the 50% effective dose (ED50) came to 25 mg/kg. Against the preceding compound, the ED50 is about 50-fold higher.

In turn, `CCOC(=O)C1=C(c2ccc(-n3c(C)nc4cnccc43)cc2)NC(C)=C(C(=O)Nc2ccccn2)C1c1cccnc1Cl` (stereo not given) showed a 50% effective dose (ED50) of 13 mg/kg. Compound `CCOC(=O)C1=C(c2ccc(-n3ccnc3C)cc2)NC(C)=C(C(=O)Nc2ccccn2)C1c1ccccc1Cl` (stereo not given) displayed an ED50 of 22 mg/kg.

Compound `CCOC(=O)C1=C(c2ccc(-c3c(C)nc4sccn34)cc2)NC(C)=C(C(=O)Nc2ccccn2)C1c1ccccc1Cl` (stereo not given) showed an ED50 of 5.4 mg/kg. Compound `CCOC(=O)C1=C(c2ccc(-n3c(C)nc4cnccc43)cc2)N=C(C)/C(=C(/O)OCc2ccccc2)C1c1ccccc1Cl` (stereo not given) returned a median effective dose (ED50) of 2 mg/kg. The figure for `CCOC(=O)C1=C(c2ccc(-n3c(C)nc4cnccc43)cc2)N=C(C)/C(=C(/O)OCCOC)C1c1ccccc1Cl` (stereo not given) is 0.16 mg/kg; for `CCOC(=O)C1=C(c2ccc(-n3c(C)nc4cnccc43)cc2)NC(C)=C(C(=O)Nc2ccccn2)C1c1ccccc1Cl` (stereo not given) it is 0.26 mg/kg.

Broadly, the ED50 is the midpoint of the dose-response relation.
